Data taken from patent publication EP2451450B1, “Inhibitors of proline racemase enzymes for the treatment of Trypanosoma spp infections” (Institut Pasteur, priority 2009, dated 2011).

Columns and labels:
[1] = target: T1, TcPRAC (Trypanosoma cruzi, UniProt Q4DA80); assay: L-proline racemization assay by polarimetry; format: biochemical; details: for potency relative to PYC in terms of TcPRAC inhibition: based on the DAAOx test and polarimetry; for Racemization Inhibition: L-Proline 20 mM, 30 minutes 37°C, 0.25 µM TcPRAC
T1 construct: implied only by nickel IMAC purification; made in house; host or cells: E. coli BL21 (DE3)
Procedure: Briefly, classical assays of Proline racemization induced by TcPRAC were performed in tubes in a final volume of 1.5 ml and optical rotations measured in a polarimeter 241MC (Perkin Elmer). Parallel assays of Proline racemization were transposed into microplates in a final volume of 100 µl, as follows: serial dilutions of L- Proline ranging from 40 mM to 2.5 mM were prepared in 0.2 M sodium acetate pH 6.0 containing 0.25 mM rTcPRAC and loaded into microplate wells in the presence or in the absence of 0 - 20 µM pyrrole-2 carboxylic acid (PYC) or of similar dilutions of unknown potential inhibitors. Specific control wells were included omitting the TcPRAC and/or the PYC.
The values presented in Table 2B correspond to racemization reactions performed in the absence or in the presence of the different inhibitors. Note that 6 µM PYC is necessary to inhibit 100 % of the racemization of 10-20 mM L-proline. Briefly, L-Proline (20 mM) were incubated for 30 minutes at 37°C in test tubes with or without 0.25 µM TcPRAC in 0.2 M sodium acetate pH 6. Reactions were stopped by heating at 65° C for 10 minutes. Reaction volumes were analyzed for D-Proline formation, by measuring optical rotations in a polarimeter (365nm).

[2] = tested on: T.cruzi CL Brener (clone F11-F5); assay: Vero cell infection by trypomastigotes in the presence of inhibitor (17h), Giemsa scoring; format: cell-based; design: key to Endocytic index / Endocytic index (EI): EI = % infected cells × mean parasites per infected cell; details: for Mean number of parasites/ cell: 1,5 at 0; for % Infected cells: 38,6 at 0; for Endocytic index: 57 at 0
Procedure: Vero cells (from green monkey kidney) were seeded at a density of 15x10^6 cells per 25cm^2 culture flasks or at 5 x10^4 cells/well into LabTek slides. The cultures were maintained in RPMI 1640 medium supplemented with 5% fetal bovine serum and kept at 37°C in an atmosphere of 5% CO2. Cell culture-derived trypomastigotes from T.cruzi CL Brener (clone F11-F5) were isolated from the supernatant of Vero cells, which had been previously infected with bloodstream trypomastigotes. Vero cell cultures were infected for 17h at 37°C with cultured trypomastigotes at a 10:1 parasite/cell ratio in the presence or in the absence of increasing doses of freshly made dilutions (3-30 µM) of (E)-4-oxopent-2-enoic acid (OxoPA) and its derivative (E)-5-bromo-4-oxopent-2-enoic acid (Br-OxoPA), previously dissolved in dimethyl sulfoxide (DMSO). For comparison, cultures were seeded with or without 10-1000 µM specific proline racemase inhibitor pyrrole-2-carboxylic acid (PYC) also diluted in DMSO. To verify if proline racemase inhibitors could also exert an effect on the parasite intracellular cycle after 17 hours of parasite-host cell interaction, all the wells were then rinsed three times to eliminate all extracellular parasites and new medium was added to the cultures that were incubated for up to 48 hours with fresh dilutions of the inhibitor compounds. After the different treatments, cultures were washed with PBS, fixed and stained with Giemsa. The numbers of infected host cells and of parasites per infected cell were then scored in at least 400 host cells in independent experiments, run in duplicate. Results are expressed as the percentage of infected cells, the mean number of parasites per infected cell or by the endocytic index (EI) which represents the percentage of infected cells multiplied by the mean number of parasites per infected cell.
Vero cells (from green monkey kidney) were seeded at a density of 15x10^6 cells per 25cm^2 culture flasks or at 5 x10^4 cells/well into LabTek slides. The cultures were maintained in RPMI 1640 medium supplemented with 5% fetal bovine serum and kept at 37°C in an atmosphere of 5% CO2. Cell culture-derived trypomastigotes from T.cruzi CL Brener (clone F11-F5) were isolated from the supernatant of Vero cells, which had been previously infected with bloodstream trypomastigotes. LabTek wells were infected for 17h at 37°C with cultured trypomastigotes at a 10:1 parasite/cell ratio in the presence or in the absence of increasing doses of a freshly made dilutions of 3-30 µM of OxoPA or Br-OxoPA molecules. Cultures were washed, fixed and stained with Giemsa. *At this stage, for comparison, results obtained from cultures seeded with or without 10-1000 µM specific proline racemase inhibitor pyrrole-2-carboxylic acid (PYC) are shown and were obtained from our previous work. Endocytic index was calculated as the % of infected cells X the mean number of intracellular parasites per infected cell. Nd = Not done

[3] = tested on: T.cruzi CL Brener (clone F11-F5); assay: as above; format: cell-based; design: key: EI = % infected cells × mean parasites per infected cell; details: Table 5
[4] = Inhibitor concentration (µM) 30, Table 5

T1 sequence (Q4DA80 32-423): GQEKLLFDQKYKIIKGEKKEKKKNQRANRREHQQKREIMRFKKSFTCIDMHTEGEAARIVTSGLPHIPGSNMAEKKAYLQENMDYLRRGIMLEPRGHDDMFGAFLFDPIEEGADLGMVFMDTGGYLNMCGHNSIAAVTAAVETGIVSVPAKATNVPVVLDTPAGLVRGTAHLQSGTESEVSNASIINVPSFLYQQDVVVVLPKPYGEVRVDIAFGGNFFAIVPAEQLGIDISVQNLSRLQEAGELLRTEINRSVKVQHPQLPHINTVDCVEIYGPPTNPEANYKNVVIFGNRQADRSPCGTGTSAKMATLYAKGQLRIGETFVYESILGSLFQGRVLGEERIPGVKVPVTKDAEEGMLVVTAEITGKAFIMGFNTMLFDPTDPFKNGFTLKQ

Row | SMILES | potency relative to PYC in terms of TcPRAC inhibition [1] [fold] | Racemization Inhibition ([1]; ligand 3.0 µM) [%] | Mean number of parasites/ cell ([2]; 3 µM) | % Infected cells ([2]; 3 µM) | Endocytic index ([2]; 3 µM) | Mean number of parasites/ cell ([2]; 10 µM) | % Infected cells ([2]; 10 µM) | Endocytic index ([2]; 10 µM) | Mean number of parasites/ cell ([2]; 30 µM) | % Infected cells ([2]; 30 µM) | Endocytic index ([2]; 30 µM) | Endocytic index (EI) [2, 4] | lower doses necessary to obtain the same endocytic index (EI) as with PYC ([2]; Table 5) [fold] | lower doses necessary to obtain the same endocytic index (EI) as with PYC ([2]; versus 1000 µM PYC) [times] | Endocytic index (EI) ([3]; Inhibitor concentration (µM) 3) | Endocytic index (EI) ([3]; Inhibitor concentration (µM) 10) | Racemization Inhibition ([1]; ligand 2.5 µM) [%] | Racemization Inhibition ([1]; ligand 10.0 µM) [%] | Endocytic index (EI) ([2]; Inhibitor concentration (µM) 10, Table 5)
1 | CC(=O)/C=C/C(=O)O [OxoPA, (E)-4-oxopent-2-enoic acid] | 2 | 50.0 | 1,6 | 26,8% | 41,8 | 1,4 | 16,6% | 22,96 | 1,5 | 13,9% | 21,5 | 21 | 100 | 100 | 42 | 23 | – | – | –
2 | O=C(O)/C=C/C(=O)CBr [Br-OxoPA, (E)-5-bromo-4-oxopent-2-enoic acid] | 4 | – | 2,0 | 37,7% | 77,7 | 1,8 | 23,5% | 42,3 | 1,6 | 13,5% | 28,7 | 29 | 30 | 30 | 78 | – | 50.0 | 81.3 | 42
